Measured values as given in patent US8134007B2, “Pyridine derivatives” (Pfizer Inc., priority 2007, dated 2012).

Experiments:
Type in all cases: cell-based
[1] = target: T1, Human Nav1.8 (Homo sapiens, UniProt Q9Y5Y9); assay: VIPR Assay for Nav1.8 Compounds (FRET membrane potential, deltamethrin opener); settings: VIPR FRET membrane potential assay, deltamethrin opener; average of replicates; read-out: Nav1.8 IC50
T1 construct: expressed in transfected cells; host or cells: HEK293

[2] = tested on: tetrodotoxin-sensitive voltage-gated sodium channels including NaV1.2, NaV1.3 and NaV1.7; assay: TTX-S Assay (VIPR, SHSY-5Y cell line, veratridine opener); settings: read-out: TTX-S IC50, veratridine 50 μM opener, average of replicates
[3] = target: T2, Human Nav1.5 (Homo sapiens, UniProt Q14524); assay: Nav1.5 Assay (VIPR, HEK293 cells); settings: HEK293 cells expressing Human Nav1.5; average of replicates; read-out: Nav1.5 IC50
T2 construct: expressed in transfected cells; host or cells: HEK293
T2 sequence (Q14524 whole entry): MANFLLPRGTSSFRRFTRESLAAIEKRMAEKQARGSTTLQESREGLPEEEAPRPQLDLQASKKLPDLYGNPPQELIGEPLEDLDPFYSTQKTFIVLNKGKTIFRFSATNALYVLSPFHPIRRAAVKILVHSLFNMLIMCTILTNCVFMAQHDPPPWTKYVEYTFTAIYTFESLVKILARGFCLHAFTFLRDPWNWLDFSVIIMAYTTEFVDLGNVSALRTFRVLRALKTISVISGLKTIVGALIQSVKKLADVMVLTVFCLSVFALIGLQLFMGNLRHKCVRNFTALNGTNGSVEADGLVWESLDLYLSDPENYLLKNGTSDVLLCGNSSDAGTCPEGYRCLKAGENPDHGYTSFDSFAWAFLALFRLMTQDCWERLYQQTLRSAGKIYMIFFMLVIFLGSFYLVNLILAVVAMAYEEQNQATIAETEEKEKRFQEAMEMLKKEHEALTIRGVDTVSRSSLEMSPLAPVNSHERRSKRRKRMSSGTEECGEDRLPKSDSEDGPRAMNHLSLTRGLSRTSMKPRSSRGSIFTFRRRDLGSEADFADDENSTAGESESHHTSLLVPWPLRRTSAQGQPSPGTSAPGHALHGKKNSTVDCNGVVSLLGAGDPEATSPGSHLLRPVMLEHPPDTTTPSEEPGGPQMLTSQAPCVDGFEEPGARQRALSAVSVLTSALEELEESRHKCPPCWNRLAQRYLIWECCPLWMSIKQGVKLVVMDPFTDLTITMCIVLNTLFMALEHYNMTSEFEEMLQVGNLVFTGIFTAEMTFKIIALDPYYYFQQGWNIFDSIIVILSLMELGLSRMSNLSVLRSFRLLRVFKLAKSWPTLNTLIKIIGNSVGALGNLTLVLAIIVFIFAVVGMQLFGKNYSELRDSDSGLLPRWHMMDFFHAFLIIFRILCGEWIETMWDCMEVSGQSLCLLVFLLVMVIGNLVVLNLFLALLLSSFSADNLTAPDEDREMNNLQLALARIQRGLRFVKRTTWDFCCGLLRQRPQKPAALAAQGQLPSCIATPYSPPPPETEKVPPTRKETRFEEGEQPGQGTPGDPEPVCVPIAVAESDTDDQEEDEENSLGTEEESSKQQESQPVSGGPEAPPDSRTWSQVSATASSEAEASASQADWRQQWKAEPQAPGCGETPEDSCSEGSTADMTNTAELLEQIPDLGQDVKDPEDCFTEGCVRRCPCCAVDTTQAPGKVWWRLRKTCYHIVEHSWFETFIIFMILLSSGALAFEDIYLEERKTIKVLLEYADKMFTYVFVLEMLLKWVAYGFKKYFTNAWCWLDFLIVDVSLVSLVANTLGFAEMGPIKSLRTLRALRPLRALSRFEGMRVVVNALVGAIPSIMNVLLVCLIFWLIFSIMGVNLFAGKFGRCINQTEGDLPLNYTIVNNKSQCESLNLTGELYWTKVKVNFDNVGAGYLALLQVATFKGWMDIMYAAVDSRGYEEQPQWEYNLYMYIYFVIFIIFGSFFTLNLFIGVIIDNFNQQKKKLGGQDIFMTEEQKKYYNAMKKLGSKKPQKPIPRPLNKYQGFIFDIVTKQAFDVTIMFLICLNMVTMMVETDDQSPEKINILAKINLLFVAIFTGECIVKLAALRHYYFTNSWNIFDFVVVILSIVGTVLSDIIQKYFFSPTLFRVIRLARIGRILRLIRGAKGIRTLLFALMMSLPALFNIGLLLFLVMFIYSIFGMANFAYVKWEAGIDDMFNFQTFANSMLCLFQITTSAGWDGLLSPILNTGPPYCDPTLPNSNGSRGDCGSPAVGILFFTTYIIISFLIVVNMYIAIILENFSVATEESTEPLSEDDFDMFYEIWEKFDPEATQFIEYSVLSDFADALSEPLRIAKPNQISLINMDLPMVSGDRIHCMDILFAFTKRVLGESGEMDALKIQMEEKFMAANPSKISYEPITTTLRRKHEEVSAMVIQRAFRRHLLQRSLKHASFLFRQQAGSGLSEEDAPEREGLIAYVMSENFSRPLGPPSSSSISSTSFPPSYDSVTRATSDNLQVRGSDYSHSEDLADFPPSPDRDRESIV
Protocol: The Nav1.5 assay is performed in HEK293 cells expressing Human Nav1.5 in the same way as the Nav1.8 assay.
Where replicate experiments were conducted resulting in multiple sets of data for a test compound, the data presented represent the average value from all replicate experiments.

T1 sequence (Q9Y5Y9 whole entry): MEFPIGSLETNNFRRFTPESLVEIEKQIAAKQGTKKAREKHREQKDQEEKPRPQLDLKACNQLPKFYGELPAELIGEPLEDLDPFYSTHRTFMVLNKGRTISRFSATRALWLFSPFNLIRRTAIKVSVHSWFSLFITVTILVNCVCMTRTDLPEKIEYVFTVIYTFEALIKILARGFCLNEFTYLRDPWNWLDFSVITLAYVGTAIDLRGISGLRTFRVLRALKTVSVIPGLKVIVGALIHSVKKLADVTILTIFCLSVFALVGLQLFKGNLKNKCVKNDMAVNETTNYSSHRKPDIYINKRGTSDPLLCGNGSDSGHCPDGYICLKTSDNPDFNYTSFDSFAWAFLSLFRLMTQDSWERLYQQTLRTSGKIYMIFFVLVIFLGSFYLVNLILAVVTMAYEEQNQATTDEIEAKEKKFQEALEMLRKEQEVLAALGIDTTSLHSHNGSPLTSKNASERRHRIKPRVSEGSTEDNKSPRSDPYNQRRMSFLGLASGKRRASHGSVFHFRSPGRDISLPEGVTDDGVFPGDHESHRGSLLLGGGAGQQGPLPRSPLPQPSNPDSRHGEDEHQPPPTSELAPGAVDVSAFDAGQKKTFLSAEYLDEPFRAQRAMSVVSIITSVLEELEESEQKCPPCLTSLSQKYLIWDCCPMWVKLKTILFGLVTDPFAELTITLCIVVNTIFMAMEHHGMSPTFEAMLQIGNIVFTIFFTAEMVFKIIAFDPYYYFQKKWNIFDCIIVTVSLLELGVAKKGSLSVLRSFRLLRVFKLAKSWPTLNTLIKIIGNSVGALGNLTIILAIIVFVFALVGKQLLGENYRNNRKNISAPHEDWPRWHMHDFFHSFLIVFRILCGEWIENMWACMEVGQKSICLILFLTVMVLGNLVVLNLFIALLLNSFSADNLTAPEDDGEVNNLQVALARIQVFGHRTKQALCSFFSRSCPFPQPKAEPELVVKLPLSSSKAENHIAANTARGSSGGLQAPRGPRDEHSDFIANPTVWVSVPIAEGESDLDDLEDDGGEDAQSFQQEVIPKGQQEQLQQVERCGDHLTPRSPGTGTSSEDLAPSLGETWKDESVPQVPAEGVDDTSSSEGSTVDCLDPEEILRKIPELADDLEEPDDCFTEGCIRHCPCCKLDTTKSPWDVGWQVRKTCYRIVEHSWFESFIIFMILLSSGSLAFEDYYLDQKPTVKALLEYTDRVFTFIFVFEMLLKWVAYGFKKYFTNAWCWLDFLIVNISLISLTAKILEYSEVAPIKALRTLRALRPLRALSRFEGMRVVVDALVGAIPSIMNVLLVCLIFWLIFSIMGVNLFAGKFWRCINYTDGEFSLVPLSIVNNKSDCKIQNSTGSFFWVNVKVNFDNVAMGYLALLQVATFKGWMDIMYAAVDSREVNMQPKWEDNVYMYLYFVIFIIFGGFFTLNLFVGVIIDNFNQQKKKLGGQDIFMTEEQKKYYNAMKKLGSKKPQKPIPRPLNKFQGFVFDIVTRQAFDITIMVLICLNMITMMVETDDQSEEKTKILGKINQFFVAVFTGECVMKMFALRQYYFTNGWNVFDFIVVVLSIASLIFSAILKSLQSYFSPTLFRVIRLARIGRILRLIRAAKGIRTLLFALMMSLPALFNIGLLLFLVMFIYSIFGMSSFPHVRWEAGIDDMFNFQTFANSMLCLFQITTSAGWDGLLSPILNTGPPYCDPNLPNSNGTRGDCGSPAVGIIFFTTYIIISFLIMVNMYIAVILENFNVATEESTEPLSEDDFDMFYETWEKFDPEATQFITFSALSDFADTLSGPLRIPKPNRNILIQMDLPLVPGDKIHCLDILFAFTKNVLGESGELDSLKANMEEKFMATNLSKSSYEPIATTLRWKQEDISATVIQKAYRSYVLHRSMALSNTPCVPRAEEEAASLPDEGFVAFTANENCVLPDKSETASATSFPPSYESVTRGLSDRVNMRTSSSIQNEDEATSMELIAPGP

SMILES | IC50 [1] | IC50 [2] | IC50 [3]
Cc1nocc1C(=O)Nc1ccc(-c2cc(Cl)cc(Cl)c2)c(N)n1 [Example 31, N-[6-Amino-5-(3,5-dichlorophenyl)pyridin-2-yl]-3-methylisoxazole-4-carboxamide] | 3.9 µM | 20 µM | 30 µM
Cc1nocc1C(=O)Nc1ccc(-c2cc(Cl)ccc2OC(F)(F)F)c(N)n1 [Example 32, N-{6-Amino-5-[5-chloro-2-(trifluoromethoxy)phenyl]pyridin-2-yl}-3-methylisoxazole-4-carboxamide] | 0.64 µM | 2.6 µM | 7.8 µM
Cc1nocc1C(=O)Nc1ccc(-c2ccccc2F)c(N)n1 [Example 33, N-[6-Amino-5-(2-fluorophenyl)pyridin-2-yl]-3-methylisoxazole-4-carboxamide] | 6.5 µM | 23 µM | > 32 µM
Cc1nocc1C(=O)Nc1ccc(-c2cc(F)ccc2F)c(N)n1 [Example 34, N-[6-Amino-5-(2,5-difluorophenyl)pyridin-2-yl]-3-methylisoxazole-4-carboxamide] | 3.1 µM | 19 µM | 16 µM
Cc1nocc1C(=O)Nc1ccc(-c2cccc3c2OCCO3)c(N)n1 [Example 35, N-[6-Amino-5-(2,3-dihydro-1,4-benzodioxin-5-yl)pyridin-2-yl]-3-methylisoxazole-4-carboxamide] | 11 µM | > 32 µM | > 32 µM
Cc1nocc1C(=O)Nc1ccc(-c2cc(OC(F)(F)F)ccc2F)c(N)n1 [Example 36, N-{6-Amino-5-[2-fluoro-5-(trifluoromethoxy)phenyl]pyridin-2-yl}-3-methylisoxazole-4-carboxamide] | 1.3 µM | 2.2 µM | 6.4 µM
Cc1nocc1C(=O)Nc1ccc(-c2cc(OC(F)(F)F)ccc2Cl)c(N)n1 [Example 37, N-{6-Amino-5-[2-chloro-5-(trifluoromethoxy)phenyl]pyridin-2-yl}-3-methylisoxazole-4-carboxamide] | 0.44 µM | 1.2 µM | 3.6 µM
Cc1nocc1C(=O)Nc1ccc(-c2ccccc2OC(F)F)c(N)n1 [Example 38, N-{6-Amino-5-[2-(difluoromethoxy)phenyl]pyridin-2-yl}-3-methylisoxazole-4-carboxamide] | 2.6 µM | 26 µM | 25 µM
Cc1nocc1C(=O)Nc1ccc(-c2cc(F)ccc2C(F)(F)F)c(N)n1 [Example 39, N-{6-Amino-5-[5-fluoro-2-(trifluoromethyl)phenyl]pyridin-2-yl}-3-methylisoxazole-4-carboxamide] | 0.93 µM | 13 µM | 21 µM
Cc1nocc1C(=O)Nc1ccc(-c2ccc(F)cc2)c(N)n1 [Example 40, N-[6-Amino-5-(4-fluorophenyl)pyridin-2-yl]-3-methylisoxazole-4-carboxamide] | 20 µM | 30 µM | 31 µM
Cc1nocc1C(=O)Nc1ccc(-c2cc(F)ccc2Cl)c(N)n1 [Example 41, N-[6-Amino-5-(2-chloro-5-fluorophenyl)pyridin-2-yl]-3-methylisoxazole-4-carboxamide] | 0.25 µM | 11 µM | 12 µM
Cc1nocc1C(=O)Nc1ccc(-c2ccccc2C(F)F)c(N)n1 [Example 42, N-[6-Amino-5-[2-(difluoromethyl)phenyl]pyridin-2-yl]-3-methylisoxazole-4-carboxamide] | 2.5 µM | 22 µM | > 32 µM
Cc1nocc1C(=O)Nc1ccc(-c2ccccc2OC(F)(F)F)c(N)n1 [Example 43, N-{6-Amino-5-[2-(trifluoromethoxy)phenyl]pyridin-2-yl}-3-methylisoxazole-4-carboxamide] | 0.32 µM | 10 µM | 12 µM
Cc1nonc1C(=O)Nc1ccc(-c2cc(F)ccc2Cl)c(N)n1 [Example 47, N-[6-Amino-5-(2-chloro-5-fluorophenyl)pyridin-2-yl]-4-methyl-1,2,5-oxadiazole-3-carboxamide] | 1.4 µM | 6.1 µM | 7.4 µM
